Counter-ions that a name gives are not always drawn.
Experiment: collision cross section in nitrogen (drift tube, single-field); higher = larger gas-phase ion size
[1] = ion type: [M+H], ion source: ESI, ion mode: Positive
[2] = ion type: [M+Na], ion source: ESI, ion mode: Positive
[3] = ion type: [M-H], ion source: ESI, ion mode: Negative
[4] = ion type: [M+H], ion source: APCI, ion mode: Positive
[5] = ion type: [M+], ion source: APCI, ion mode: Positive
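Further: chemical standards at 10 µM analysed by drift tube IMS-QTOF MS in about 3.95 torr nitrogen, mean of duplicate injections differing ≤1%, mass error below 10 ppm.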

Row | Structure (SMILES) | collision cross section in nitrogen [1] [Å²] | collision cross section in nitrogen [2] [Å²] | collision cross section in nitrogen [3] [Å²] | collision cross section in nitrogen [4] [Å²] | further results
1 | CCOC(=O)COc1cc(-n2ncc(C(F)(F)F)c(C)c2=O)c(F)cc1Cl [Flufenpyr-ethyl] | 182.1 | 191.4 | 183.3 |  | 
2 | COc1ccc(N)c(C)c1 [4-Methoxy-2-methylaniline] | 135.7 |  |  | 124.8 | 
3 | CCC(CC)C(=O)O [2-Ethylbutyric acid] |  |  | 127.6 |  | 
4 | Nc1cc([N+](=O)[O-])cc(Cl)c1O [2-Amino-6-chloro-4-nitrophenol] |  |  | 130.1 |  | 
5 | c1ccc(-c2nnn[nH]2)cc1 [5-Phenyl-1H-tetrazole] |  |  | 127.7 |  | 
6 | O=C(O[C@@H]1Cc2c(O)cc(O)cc2O[C@@H]1c1cc(O)c(O)c(O)c1)c1cc(O)c(O)c(O)c1 [(-)-Epigallocatechin gallate] |  | 212.4 |  |  | 
7 | CC(=O)Oc1c(C)c(C)c2c(c1C)CC[C@@](C)(CCC[C@H](C)CCC[C@H](C)CCCC(C)C)O2 (racemic) [dl-alpha-Tocopheryl acetate] | 226.4 | 222 |  |  | 
8 | OCCN(CCO)CCN(CCO)CCO [2,2',2'',2'''-(1,2-Ethanediyldinitrilo)tetrakisethanol] | 149.6 | 151.1 |  | 149.2 | 
9 | CC1=C(C(=O)Nc2ccccc2)SCCO1 [Carboxin] | 153 | 165.7 | 155.8 | 151.4 | 
10 | CCC1(c2ccccc2)C(=O)N=C(O)NC1=O (stereo not given) [Phenobarbital sodium] |  |  | 150.4 |  | 
11 | CS(=O)(=O)c1ccc([C@@H](CC2CCCC2)C(=O)Nc2cnccn2)cc1Cl | 205.5 | 207.9 | 202.7 |  | 
12 | CCCCC(CC)COC(=O)c1ccc(N(C)C)cc1 (stereo not given) [4-(Dimethylamino)benzoic acid 2-ethylhexyl ester] | 185.2 |  |  | 185.9 | 
13 | CC(C1CC1)C(O)(Cn1cncn1)c1ccc(Cl)cc1 (stereo not given) [Cyproconazole] | 170.2 |  |  | 170.6 | 
14 | N=C(N)NC(=N)NCCc1ccccc1 | 146.3 | 148.3 |  | 145.7 | 
15 | Cc1cc(Cl)ccc1OCC(=O)O [2-(4-Chloro-2-methylphenoxy)acetic acid] |  |  | 146.1 |  | 
16 | CN(C)c1ccc(C(=N)c2ccc(N(C)C)cc2)cc1 [Auramine hydrochloride] | 169.8 |  |  | 168.3 | 
17 | CNC(=O)Oc1c(C(C)(C)C)cc(C)cc1C(C)(C)C [Terbucarb] |  | 176.8 |  |  | 
18 | CC(=O)c1sc(C)nc1C [1-(2,4-Dimethyl-1,3-thiazol-5-yl)ethanone] |  |  |  | 129.2 | 
19 | CCCCNS(=O)(=O)c1ccc(C)cc1 [N-Butyl-p-toluenesulfonamide] |  | 169.3 | 155 |  | 
20 | O=Nc1ccc(Nc2ccccc2)cc1 [4-Nitrosodiphenylamine] | 144.2 |  | 144.7 | 144.3 | 

Row | Structure (SMILES) | collision cross section in nitrogen [1] [Å²] | collision cross section in nitrogen [2] [Å²] | collision cross section in nitrogen [3] [Å²] | collision cross section in nitrogen [4] [Å²] | further results
21 | CC(C)(C)c1ccc(OC2CCCCC2O)cc1 (stereo not given) [2-(4-tert-Butylphenoxy)cyclohexanol] |  | 179.8 |  |  | 
22 | C[C@H](CCC(=O)NCC(=O)O)[C@H]1CC[C@H]2[C@@H]3[C@H](O)C[C@@H]4C[C@H](O)CC[C@]4(C)[C@H]3C[C@H](O)[C@]12C [Glycocholic acid] |  | 201.7 | 202.5 |  | 
23 | COc1cc(-c2nc(NC(=O)c3cc4cc(C)cc(C)c4n3CC(=O)O)sc2CCC2CCCCC2)c(OC)cc1Cl | 258.2 | 259.5 | 258.7 | 258.5 | 
24 | O=C(O)C1CCC(C(=O)O)CC1 (stereo not given) [1,4-Cyclohexanedicarboxylic acid] |  |  | 136.1 |  | 
25 | O=C1OC2(c3cc(Br)c(O)c(Br)c3Oc3c2cc(Br)c(O)c3Br)c2c(Cl)c(Cl)c(Cl)c(Cl)c21 [D&C Red 27] |  |  | 226.8 |  | 
26 | Nc1ccc(-c2ccc(F)cc2)cc1 [4'-Fluoro-4-aminodiphenyl] | 156.4 |  |  |  | collision cross section in nitrogen [5]: 136.9 Å²
27 | O=S(=O)(O)C(F)(F)C(F)(F)C(F)(F)C(F)(F)F [Potassium perfluorobutanesulfonate] |  |  | 134.2 |  | 
28 | COc1ccc(-c2coc3cc(O)cc(O)c3c2=O)cc1 [Biochanin A] | 164.1 | 175 | 168 | 164.6 | 
29 | CCNc1nc(Cl)nc(NC(C)(C)C#N)n1 [Cyanazine] | 155.4 |  |  | 155.6 | 
30 | COC(=O)NS(=O)(=O)c1ccc(N)cc1 [Asulam] |  |  | 150.4 |  | 
31 | O=C(O)C1C2CCC(O2)C1C(=O)O (stereo not given) [Endothal] |  | 140.1 | 135.6 |  | 
32 | CCOCN(C(=O)CS(=O)(=O)O)c1c(C)cccc1CC [Acetochlor ESA] |  |  | 172.3 |  | 
33 | Cc1ccccc1N=Nc1ccc(NC(=O)c2ccnn2C)c(C)c1 | 189.1 | 200.2 | 190.8 | 189.6 | 
34 | Cc1cc(Cl)ccc1OCC(=O)O |  |  | 146.1 |  | 
35 | CCCCCCCC/C=C/CCCCCCCC(=O)OCC(O)CO (stereo not drawn) [trans-Monoelaidin] |  | 199 |  |  | 
36 | CC(C)OC(=O)C(C)N(C(=O)c1ccccc1)c1ccc(F)c(Cl)c1 (stereo not given) [Flamprop-isopropyl] |  | 193.4 |  | 182.1 | 
37 | CC(=O)C(C)=CC1C(C)=CCCC1(C)C (stereo not drawn) [Isomethyl-alpha-ionone] |  |  | 155 |  | 
38 | Cc1cc2c3c(c1)C(c1ccccc1)=N[C@@H](NC(=O)c1ccncc1)C(=O)N3CC2 [CI-1018] | 200.9 | 210.1 | 195 | 201.9 | 
39 | O=C(O)C(F)(F)C(F)(F)C(F)(F)C(F)(F)C(F)(F)C(F)(F)C(F)(F)C(F)(F)F [Perfluorononanoic acid] |  |  | 166.1 |  | 
40 | CCCC(=NOCC)C1=C(O)CC(CC(C)SCC)CC1=O (stereo not given) [Sethoxydim] | 181 |  | 178.5 | 181.6 | 

Row | Structure (SMILES) | collision cross section in nitrogen [1] [Å²] | collision cross section in nitrogen [2] [Å²] | collision cross section in nitrogen [3] [Å²] | collision cross section in nitrogen [4] [Å²] | further results
41 | CS(=O)(=O)c1ccc(C(=O)C2C(=O)CCCC2=O)c(Cl)c1COCC(F)(F)F [Tembotrione] | 189.3 | 185.1 | 188.5 |  | 
42 | CC(=O)CCc1ccc(OC(C)=O)cc1 [4-[4-(Acetyloxy)phenyl]-2-butanone] |  | 146.4 |  |  | 
43 | CC(C)(C)c1cc(CCC(=O)NCCCCCCNC(=O)CCc2cc(C(C)(C)C)c(O)c(C(C)(C)C)c2)cc(C(C)(C)C)c1O [Antioxidant 1098] | 263.3 | 259.8 | 252.1 | 263.2 | collision cross section in nitrogen [5]: 271.7 Å²
44 | Cc1c(C2(c3cc(Br)c(O)c(Br)c3C)c3ccccc3OS2(=O)=O)cc(Br)c(O)c1Br |  |  | 217.4 |  | 
45 | N=C(NCCCCCCNC(=N)NC(=N)Nc1ccc(Cl)cc1)NC(=N)Nc1ccc(Cl)cc1 [Chlorhexidine diacetate] | 224.1 | 228.3 | 233.6 | 222.8 | 
46 | COc1cnccc1O [4-Hydroxy-3-methoxypyridine] | 121.8 |  |  | 120.7 | 
47 | CCCCCCCC(=O)OCC [Ethyl octanoate] |  |  | 149.5 |  | 
48 | CCCCCCCCCCCCCC[n+]1ccccc1 [Tetradecylpyridinium bromide] |  |  |  |  | collision cross section in nitrogen (ion source: APCI, ion mode: Positive, ion type: [M]+ (permanent cation)): 185.4 Å²; collision cross section in nitrogen (ion source: ESI, ion mode: Positive, ion type: [M]+ (permanent cation)): 185.9 Å²
49 | O=P1(N(CCCl)CCCl)NCCCO1 (stereo not given) [Cyclophosphamide] | 147.7 | 154.6 |  | 147.8 | 
50 | NC(=O)c1ccccc1O [Salicylamide] |  |  | 122.2 |  | 
51 | O=C(O)c1cccc(C(F)(F)F)c1 [3-(Trifluoromethyl)benzoic acid] |  |  | 132.4 |  | 
52 | Nc1cc(N)cc(C(=O)O)c1 [3,5-Diaminobenzoic acid] |  |  | 136.6 |  | 
53 | CCN(CCC#N)c1ccc(N=Nc2c(Cl)cc([N+](=O)[O-])cc2Cl)cc1 [C.I. Disperse Orange 37] | 197.9 |  |  | 197.8 | 
54 | CCNP(=S)(OC)O/C(C)=C/C(=O)OC(C)C (stereo not given) [Propetamphos] |  | 170.5 | 168.1 |  | 
55 | CNP(=O)(OC)Oc1ccc(C(C)(C)C)cc1Cl (stereo not given) [Crufomate] | 165 | 176.3 |  | 165.2 | 
56 | CC(C)CC(=O)C1C(=O)c2ccccc2C1=O [2-Isovaleryl-1,3-indanedione] |  |  | 154.2 |  | 
57 | N#CCc1cccc(C(F)(F)F)c1 [[3-(Trifluoromethyl)phenyl]acetonitrile] |  |  | 129.1 |  | 
58 | CC1(C)S[C@@H]2[C@H](NC(=O)COc3ccccc3)C(=O)N2[C@H]1C(=O)O [Penicillin VK] | 182.1 | 184.1 |  | 182 | 
59 | CC(C)COP(=O)(OCC(C)C)OCC(C)C [Triisobutyl phosphate] |  | 183.6 |  |  | 
60 | COCCOC[C@H](CC1(C(=O)N[C@H]2CC[C@@H](C(=O)O)CC2)CCCC1)C(=O)Oc1ccc2c(c1)CCC2 [Candoxatril] | 224.4 | 222.5 | 226.4 | 224.2 | 
